Measured values taken from ChEMBL document CHEMBL3045261, “Study on the quantitative structuretoxicity relationships of benzoic acid derivatives in rats via oral LD50” (Med Chem Res, 2009).

System: Rattus norvegicus
Experiment: Toxicity in po dosed Rattus norvegicus (rat)
Details: in vivo

| Compound | pLD50 |
| --- | --- |
| O=C(O)c1c(Cl)ccc(Cl)c1O | 7.35 |
| COC(=O)c1cc([N+](=O)[O-])ccc1Cl | 8.59 |
| Cc1ccc(OC(=O)c2ccccc2O)cc1 | 7.17 |
| COC(=O)c1cccc(C)c1O | 8.25 |
| CC(C)COC(=O)c1ccccc1O | 7.35 |
| CC(C)CCOC(=O)c1ccccc1O | 8.1 |
| O=C(O)c1c(Cl)ccc(Cl)c1Cl [2,3,6-TRICHLOROBENZOIC ACID] | 6.48 |
| COc1cccc(OC)c1C(=O)O [2,6-DIMETHOXYBENZOIC ACID] | 6.21 |
| COC(=O)c1ccccc1OC(N)=O [2-(AMINOCARBONYL)OXYBENZOIC ACID METHYL ESTER] | 7.82 |
| O=C(O)c1ccccc1C(=O)c1ccccc1 [2-BENZOYLBENZOIC ACID] | 8.43 |
| O=C(O)Cc1ccccc1C(=O)O [2-CARBOXYBENZENEACETIC ACID] | 6.21 |
| CNc1ccccc1C(=O)OC [2-METHYLAMINOBENZOIC ACID METHYL ESTER] | 8.13 |
| Nc1c(Cl)cc(Cl)cc1C(=O)O [3,5-DICHLOROANTHRANILIC ACID] | 8.32 |
| O=C(O)c1cc([N+](=O)[O-])cc([N+](=O)[O-])c1O [3,5-DINITROSALICYLIC ACID] | 6.76 |
| COc1c(Cl)ccc(Cl)c1C(=O)O [3,6 DICHLOROMETHOXYBENZOIC ACID] | 6.95 |
| O=C(O)c1ccc(Cl)c([N+](=O)[O-])c1 [4-CHLORO-3-NITROBENZOIC ACID] | 8.06 |
| CCOC(=O)c1ccc(OC)cc1 [4-METHOXYBENZOIC ACID ETHYL ESTER] | 7.62 |
| CCOC(=O)c1ccc([N+](=O)[O-])cc1 [4-NITROBENZOIC ACID ETHYL ESTER] | 7.89 |
| O=C(O)c1ccc([N+](=O)[O-])cc1 [4-NITROBENZOIC ACID] | 7.58 |
| O=C(Cl)c1ccc([N+](=O)[O-])cc1 [4-NITROBENZOYL CHLORIDE] | 8.63 |
| O=C(O)c1cc(Cl)ccc1O [5-CHLOROSALICYLIC ACID] | 5.52 |
| Nc1ccc(C(=O)O)cc1 [AMINOBENZOIC ACID] | 8.7 |
| Nc1ccccc1C(=O)O [ANTHRANILIC ACID] | 8.6 |
| CC(=O)Oc1ccccc1C(=O)O [ASPIRIN] | 5.3 |
| CCOC(=O)c1ccc(N)cc1 [BENZOCAINE] | 8.02 |
| CC(C)CCOC(=O)c1ccccc1 [BENZOIC ACID 1-(3-METHYL)BUTYL ESTER] | 8.75 |
| CC(C)OC(=O)c1ccccc1 [BENZOIC ACID 1-METHYLETHYL ESTER] | 8.22 |

| Compound | pLD50 |
| --- | --- |
| O=C(OCC1CO1)c1ccccc1 (centres undefined) [BENZOIC ACID 2,3-EPOXYPROPYL ESTER] | 7.25 |
| CC(C)COC(=O)c1ccccc1 [BENZOIC ACID 2-METHYLPROPYL ESTER] | 8.63 |
| O=C(Oc1cccc(O)c1)c1ccccc1 [BENZOIC ACID 3-HYDROXYPHENYL ESTER] | 6.68 |
| CC(C)=CCOC(=O)c1ccccc1 [BENZOIC ACID 3-METHYL-2-BUTENYL ESTER] | 8.46 |
| Cc1ccc(OC(=O)c2ccccc2)cc1 [BENZOIC ACID 4-METHYLPHENYL ESTER] | 7.88 |
| CCCCCCOC(=O)c1ccccc1 [BENZOIC ACID HEXYL ESTER] | 9.42 |
| C=COC(=O)c1ccccc1 [BENZOIC ACID VINYL ESTER] | 8.09 |
| O=C(O)c1ccccc1 [BENZOIC ACID] | 7.44 |
| O=C(Cl)c1ccccc1 [BENZOYL CHLORIDE] | 7.55 |
| O=C(OCc1ccccc1)c1ccccc1O [BENZYL SALICYLATE] | 7.71 |
| CCCCOC(=O)c1ccccc1N [BUTYL 2-AMINOBENZOATE] | 8.52 |
| Nc1cc(Cl)cc(C(=O)O)c1Cl [CHLORAMBEN] | 8.16 |
| CCOC(=O)c1ccccc1 [ETHYL BENZOATE] | 7.65 |
| CCOC(=O)c1ccccc1O [ETHYL SALICYLATE] | 7.191 |
| O=C(O)c1ccccc1OP(=O)(O)O [FOSFOSAL] | 7.01 |
| Cc1cccc(C(=O)O)c1O [HYDROXYTOLUIC ACID] | 6.1 |
| Nc1ccc(O)c(C(=O)O)c1 [MESALAMINE] | 7.94 |
| COC(=O)c1ccccc1OC [METHYL 2-METHOXYBENZOATE] | 8.241 |
| COC(=O)c1ccc(OC)cc1 [METHYL 4-METHOXYBENZOATE] | 8.52 |
| COC(=O)c1ccccc1O [METHYL SALICYLATE] | 6.79 |
| O=C(O)c1ccccc1/N=C/c1ccccc1 [N-BENZYLIDENEANTHRANILIC ACID] | 6.21 |
| O=C(O)c1ccc(O)cc1 [PARABEN] | 9.21 |
| O=C(Oc1ccccc1)c1ccccc1O [PHENYL SALICYLATE] | 8.01 |
| CCCOC(=O)c1cc(O)c(O)c(O)c1 [PROPYL GALLATE] | 7.65 |
| NC(=O)c1ccccc1O [SALICYLAMIDE] | 6.89 |
| O=C(O)c1ccccc1O [SALICYLIC ACID] | 6.791 |
| O=C(O)c1cc(S(=O)(=O)O)ccc1O [SULFOSALICYLIC] | 7.52 |
